According to ChEMBL document CHEMBL1201862, “PubChem BioAssay data set” (2004):
Several values for one entry are separate records, joined by “and”; a condition that tells them apart may be missing. Equal entries are not always repeated.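 48-hour exposure; five concentrations; linearly interpolated endpoints. GI50 = concentration required for 50% inhibition of growth.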 Activity calls are given as the source filed them. Rule as the data show it: active = GI50 up to about 1.1 µM and inactive = higher.

Assays:
Test in all cases: NCI-60 cell line screen, 48 h
[1] = system: 786-0
[2] = system: A498
[3] = system: A549
[4] = system: ACHN
[5] = system: CAKI-1
[6] = system: CCRF-CEM
[7] = system: COLO 205
[8] = system: DU-145
[9] = system: EKVX
[10] = system: HCC 2998
[11] = system: HCT-116
[12] = system: HCT-15
[13] = system: HL-60
[14] = system: HOP-62
[15] = system: HOP-92
[16] = system: HT-29
[17] = system: IGROV-1
[18] = system: K562
[19] = system: KM12
[20] = system: LOX IMVI
[21] = system: M14
[22] = system: MCF7
[23] = system: MDA-MB-231
[24] = system: MDA-MB-435
[25] = system: MDA-N
[26] = system: MOLT-4
[27] = system: NCI-H23
[28] = system: NCI-H460
[29] = system: NCI/ADR-RES
[30] = system: OVCAR-3
[31] = system: OVCAR-4
[32] = system: OVCAR-5
[33] = system: OVCAR-8
[34] = system: PC-3
[35] = system: RPMI-8226
[36] = system: SF-295
[37] = system: SK-MEL-28
[38] = system: SK-MEL-2
[39] = system: SK-MEL-5
[40] = system: SK-OV-3
[41] = system: SN12C
[42] = system: SNB-19
[43] = system: SNB-75
[44] = system: SR
[45] = system: SW-620
[46] = system: T47D
[47] = system: TK-10
[48] = system: U-251
[49] = system: UACC-257
[50] = system: UACC-62
[51] = system: UO-31
[52] = system: Malme-3M
[53] = system: RXF 393
[54] = system: SF-268
[55] = system: NCI-H522

COC(=O)N1C[C@@]2(C=CC3(CC2)OCCO3)c2ccccc21
GI50 [1]: > 100 µM (inactive)
GI50 [2]: > 100 µM (inactive)
GI50 [3]: > 100 µM (inactive)
GI50 [4]: > 100 µM (inactive)
GI50 [5]: > 100 µM (inactive)
GI50 [6]: 45.2 µM (inactive)
GI50 [7]: > 100 µM (inactive)
GI50 [8]: > 100 µM (inactive)
GI50 [9]: 62.1 µM (inactive)
GI50 [10]: > 100 µM (inactive)
GI50 [11]: > 100 µM (inactive)
GI50 [12]: 57.3 µM
GI50 [13]: 11.2 µM (inactive)
GI50 [14]: > 100 µM (inactive)
GI50 [15]: 44.1 µM (inactive)
GI50 [16]: 28.2 µM (inactive)
GI50 [17]: 49.1 µM (inactive)
GI50 [18]: 48 µM (inactive)
GI50 [19]: 37.8 µM (inactive)
GI50 [20]: > 100 µM (inactive)
GI50 [21]: > 100 µM (inactive)
GI50 [22]: 96.4 µM (inactive)
GI50 [23]: > 100 µM (inactive)
GI50 [24]: 23.7 µM (inactive)
GI50 [25]: 51.1 µM (inactive)
GI50 [26]: 58.3 µM (inactive)
GI50 [27]: 95.7 µM (inactive)
GI50 [28]: 90.4 µM (inactive)
GI50 [29]: 28.6 µM (inactive)
GI50 [30]: > 100 µM (inactive)
GI50 [31]: > 100 µM (inactive)
GI50 [32]: > 100 µM (inactive)
GI50 [33]: 39.5 µM (inactive)
GI50 [34]: 63.7 µM (inactive)
GI50 [35]: 61.1 µM (inactive)
GI50 [36]: > 100 µM (inactive)
GI50 [37]: 67.1 µM (inactive)
GI50 [38]: > 100 µM (inactive)
GI50 [39]: 81.7 µM (inactive)
GI50 [40]: > 100 µM (inactive)
GI50 [41]: > 100 µM (inactive)
GI50 [42]: > 100 µM (inactive)
GI50 [43]: 53.6 µM (inactive)
GI50 [44]: 49.7 µM (inactive)
GI50 [45]: 40.8 µM (inactive)
GI50 [46]: > 100 µM (inactive)
GI50 [47]: > 100 µM (inactive)
GI50 [48]: 41.1 µM (inactive)
GI50 [49]: 71.3 µM (inactive)
GI50 [50]: 65.5 µM (inactive)
GI50 [51]: > 100 µM (inactive)

C=CCNc1nc(C#N)c(N)s1
GI50 [1]: > 10 µM (inactive)
GI50 [3]: > 10 µM (inactive)
GI50 [4]: > 10 µM (inactive)
GI50 [5]: > 10 µM (inactive)
GI50 [6]: > 10 µM (inactive)
GI50 [7]: > 10 µM (inactive)
GI50 [13]: > 10 µM (inactive)
GI50 [14]: > 10 µM (inactive)
GI50 [15]: > 10 µM (inactive)
GI50 [17]: > 10 µM (inactive)
GI50 [18]: > 10 µM (inactive)
GI50 [21]: > 10 µM (inactive)
GI50 [22]: > 10 µM (inactive)
GI50 [24]: > 10 µM (inactive)
GI50 [26]: > 10 µM (inactive)
GI50 [52]: > 10 µM (inactive)
GI50 [27]: > 10 µM (inactive)
GI50 [28]: > 10 µM (inactive)
GI50 [29]: > 10 µM (inactive)
GI50 [31]: > 10 µM (inactive)
GI50 [32]: > 10 µM (inactive)
GI50 [35]: > 10 µM (inactive)
GI50 [53]: > 10 µM (inactive)
GI50 [54]: > 10 µM (inactive)
GI50 [37]: > 10 µM (inactive)
GI50 [38]: > 10 µM (inactive)
GI50 [39]: > 10 µM (inactive)
GI50 [40]: > 10 µM (inactive)
GI50 [43]: > 10 µM (inactive)
GI50 [44]: > 10 µM (inactive)
GI50 [45]: > 10 µM (inactive)
GI50 [46]: > 10 µM (inactive)
GI50 [48]: > 10 µM (inactive)
GI50 [50]: > 10 µM (inactive)

CCc1c(C)c(C#N)c(=S)n(C2OC(COC(C)=O)C(OC(C)=O)C(OC(C)=O)C2OC(C)=O)c1C (configuration not stated)
GI50 [3]: 92.9 µM (inactive)
GI50 [5]: > 100 µM (inactive)
GI50 [6]: > 100 µM (inactive)
GI50 [7]: > 100 µM (inactive)
GI50 [8]: > 100 µM (inactive)
GI50 [9]: 87.1 µM (inactive)
GI50 [10]: > 100 µM (inactive)
GI50 [12]: > 100 µM
GI50 [13]: > 100 µM (inactive)
GI50 [16]: > 100 µM (inactive)
GI50 [17]: > 100 µM (inactive)
GI50 [18]: > 100 µM (inactive)
GI50 [19]: > 100 µM (inactive)
GI50 [20]: > 100 µM (inactive)
GI50 [21]: 39.4 µM (inactive) and 46.2 µM (inactive)
GI50 [22]: > 100 µM (inactive)
GI50 [24]: > 100 µM (inactive)
GI50 [25]: > 100 µM (inactive)
GI50 [26]: > 100 µM (inactive)
GI50 [52]: > 100 µM (inactive)
GI50 [27]: > 100 µM (inactive)
GI50 [28]: > 100 µM (inactive)
GI50 [55]: > 100 µM (inactive) and 52.8 µM (inactive)
GI50 [29]: > 100 µM (inactive)
GI50 [30]: > 100 µM (inactive)
GI50 [31]: > 100 µM (inactive) and 80.7 µM (inactive)
GI50 [33]: > 100 µM (inactive)
GI50 [54]: > 100 µM (inactive) and 73.5 µM (inactive)
GI50 [37]: > 100 µM (inactive)
GI50 [38]: 13 µM (inactive)
GI50 [39]: > 100 µM (inactive)
GI50 [41]: > 100 µM (inactive)
GI50 [43]: 0.0113 µM (active)
GI50 [44]: > 100 µM (inactive)
GI50 [45]: > 100 µM (inactive)
GI50 [46]: > 100 µM (inactive)
GI50 [49]: > 100 µM (inactive)
